Experiment [1] has as its system A375 malignant melanoma. The experiment can be described thus: Cell proliferation inhibition assay (14C-thymidine incorporation), A375. To be noted: Homo sapiens, A-375, A375 cells. In kind it is cell-based. The text has this: (§1) The ability of a test compound to inhibit unregulated cell proliferation may be determined by measuring incorporation of ^14C-labelled thymidine into newly synthesized DNA within cell lines derived from carcinomas originating from several tissues. Accordingly, the anti-proliferative effect of a compound on cells with a variety of phenotypes may be determined.
(§2) Carcinoma cell lines include those such as HeLa cervical adenocarcinoma (American Type Culture Collection (ATCC), Virginia, Cat. #CCL-2), A375 malignant melanoma (ATCC CRL-1619), and HCT-116 colon carcinoma (CCL-247).
(§3) The carcinoma cells are trypsinized and counted. The cells (3000-8000 count) are added to each well of a 96-well CytoStar tissue culture treated scintillating microplate (Amersham #RPNQ0160) in complete medium (100 μL) and the plate is then incubated in complete medium for 24 hrs at 37° C. in an inert atmosphere containing 5% CO2. Test compound (1 μL) in 100% DMSO is added to the plate test-wells with DMSO only added to control-wells. The plate is incubated in complete medium for a second 24 hr period at 37° C. in an atmosphere containing 5% CO2.
(§4) An aliquot of a solution of Methyl ^14C-thymidine (56 mC/mmol) (NEN #NEC568 or Amersham #CFA532) and complete medium (20 uL to provide 0.2 μCi/well) is then added to each well and the plate is incubated for a third 24 hr period at 37° C. in an atmosphere containing 5% CO2. The plate contents are then discarded, the plate is washed twice with PBS (200 μL) and then PBS (200 μL) is added to each well. The plate is sealed and the degree of methyl ^14C-thymidine incorporation is quantified on a Packard Top Count.
(§5) A maximum and minimum signal for the assay was determined on each plate. The percent inhibition of a test compound was calculated according to the formula: […]
(§6) For a series of test concentrations, the IC50 was derived by graphing percent inhibition against the log of the concentrations tested for a given compound with results shown in Table 3.
In general terms: Uptake of a labelled nucleoside into DNA is a usual measure of proliferation.

Experiment [2] concerns HeLa cervical adenocarcinoma. Put plainly: Cell proliferation inhibition assay (14C-thymidine incorporation), HeLa. The settings on record: Homo sapiens, HeLa cells. It is filed as cell-based.
From the text: as §1, §2, §3, §4, §5, §6

The target in experiment [3] is T1, rat VEGF-R2 kinase domain (polyhistidine fusion, amino acids 786 to 1343) (Rattus norvegicus, UniProt O08775).
T1 construct: amino acids 786 to 1343 of the rat VEGF-R2 kinase domain; polyhistidine (N)
T1 sequence (O08775 786-1343): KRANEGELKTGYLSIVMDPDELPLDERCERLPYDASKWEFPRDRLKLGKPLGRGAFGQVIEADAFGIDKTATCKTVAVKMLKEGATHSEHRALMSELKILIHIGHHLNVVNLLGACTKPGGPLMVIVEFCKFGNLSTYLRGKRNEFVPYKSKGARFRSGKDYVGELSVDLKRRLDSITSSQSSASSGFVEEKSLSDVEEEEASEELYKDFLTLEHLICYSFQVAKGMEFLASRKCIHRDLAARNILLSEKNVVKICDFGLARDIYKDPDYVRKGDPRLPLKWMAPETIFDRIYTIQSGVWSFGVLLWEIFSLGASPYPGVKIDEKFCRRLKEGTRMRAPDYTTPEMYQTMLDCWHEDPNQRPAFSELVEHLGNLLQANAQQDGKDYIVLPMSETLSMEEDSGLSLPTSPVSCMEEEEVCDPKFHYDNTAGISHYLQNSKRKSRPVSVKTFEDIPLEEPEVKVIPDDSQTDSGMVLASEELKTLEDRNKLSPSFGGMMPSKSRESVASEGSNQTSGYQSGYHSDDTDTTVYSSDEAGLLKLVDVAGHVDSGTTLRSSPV
The experiment can be described thus: VEGFR2 screening assay (33P-ATP FlashPlate). It is filed as biochemical. The settings on record: 10 μM ATP, 1 hr at 30° C. The method, then: (§7) 70 μL of the kinase reaction mixture was dispensed into the well of a streptavidin coated FlashPlate™ (Cat. # SMP103, NEN, Boston, Mass.).
(§8) Test compound stock in 100% DMSO (1 μL) was added to the wells resulting in a final concentration of 1% DMSO in the reaction with a 100 μL final reaction volume. Each enzyme was diluted in 50 mM Tris-HCl pH=8.0, 0.1% BSA and 30 μL was added to each well to initiate the reaction. The reaction was incubated for one hour at 30° C. At the end of the 1 hr incubation, the reaction was terminated by aspirating the mixture from the plate and washing the wells twice with PBS containing 100 mM EDTA. The biotinylated peptide substrate became immobilized on the Flashplate™ and the incorporation of ^33P-γ-ATP was measured by reading the plate on a scintillation counter. Inhibition of the enzymatic activity was measured by observing a reduced amount of ^33P-γ-ATP incorporated into the immobilized peptide.
The assay used 150 ng of the N-terminal biotinylated peptide biotin-[…]-amide (VEGF-R2) per well.
as §5

Experiment [4] relates to HCT-116 colon carcinoma. The experiment can be described thus: Cell proliferation inhibition assay (14C-thymidine incorporation), HCT-116. In kind it is cell-based. To be noted: Homo sapiens, HCT-116 cells.
From the text: as §1, §2, §3, §4, §5, §6

In experiment [5] the target is T2, murine Aurora-A (polyhistidine fusion, full length) (Mus musculus, UniProt P97477).
T2 construct: followed by the full length protein encoding the murine Aurora-A; polyhistidine (N); made in house; host or cells: sf9 insect cells
T2 sequence (P97477 1-395): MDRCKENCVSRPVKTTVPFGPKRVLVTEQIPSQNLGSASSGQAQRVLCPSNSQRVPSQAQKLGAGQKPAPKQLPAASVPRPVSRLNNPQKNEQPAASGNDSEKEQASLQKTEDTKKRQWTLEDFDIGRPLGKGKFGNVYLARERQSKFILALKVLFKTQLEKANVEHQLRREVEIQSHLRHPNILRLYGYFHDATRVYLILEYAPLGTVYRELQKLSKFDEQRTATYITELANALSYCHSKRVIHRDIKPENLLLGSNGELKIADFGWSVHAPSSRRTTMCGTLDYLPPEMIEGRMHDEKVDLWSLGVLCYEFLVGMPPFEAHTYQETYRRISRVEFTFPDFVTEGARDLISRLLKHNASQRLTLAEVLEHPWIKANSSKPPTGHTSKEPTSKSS
The experiment can be described thus: Aurora-A screening assay (33P-ATP FlashPlate). In kind it is biochemical. The settings on record: 10 μM ATP, 1 hr at 30° C. As for the experimental part: as §7, §8
Aurora-A is a fusion protein containing a polyhistidine tag at the N terminus followed by the full length protein encoding the murine Aurora-A (Accession number GB BC014711) expressed and purified from sf9 insect cells. The assay used 400 ng of the N-terminal biotinylated peptide biotin-[…]-amide (Aurora-A) per well.
as §5

Experiment [6] has as its target T3, HER2 (GST/HIS6 fusion, amino acids 679 to 1255 of HER-2) (Homo sapiens, UniProt P04626).
T3 construct: GST (Glutathione-S-Transferase) (N); HIS6 (N); thrombin cleavage site (N); purchased Proqinase, Freiburg, Germany
The experiment can be described thus: HER2 screening assay (33P-ATP FlashPlate). In kind it is biochemical. To be noted: 10 μM ATP, 1 hr at 30° C. The method, then:
(§9) A kinase reaction mixture was prepared containing 50 mM Tris-HCl pH=8, 10 mM MgCl2, 0.1 mM […], 1 mM DTT, 10 μM ATP, 0.025 μM biotinylated histone-H1 peptide substrate and 0.2 μCuries per well ^33P-γ-ATP (2000-3000 Ci/mmol). 70 μL of the kinase reaction mixture was dispensed into the well of a streptavidin coated FlashPlate™ (Cat. # SMP103, NEN, Boston, Mass.).
as §8
The HER2 construct consisted of a fusion of GST (Glutathione-S-Transferase), HIS6 Thrombin and the nucleotides encoding amino acids 679 to 1255 of HER-2 (Accession number M11730) (Proqinase, Freiburg, Germany). The assay used 200 ng of the N-terminal biotinylated peptide biotin-poly(GT) 4:1 (HER2) per well.
as §5

The target in experiment [7] is T4, human CDK1 catalytic subunit and cyclin B (Homo sapiens, UniProt P06493).
T4 construct: purchased New England Biolabs, Beverly, Mass; 6020; host or cells: insect cells
T4 sequence (P06493 whole entry): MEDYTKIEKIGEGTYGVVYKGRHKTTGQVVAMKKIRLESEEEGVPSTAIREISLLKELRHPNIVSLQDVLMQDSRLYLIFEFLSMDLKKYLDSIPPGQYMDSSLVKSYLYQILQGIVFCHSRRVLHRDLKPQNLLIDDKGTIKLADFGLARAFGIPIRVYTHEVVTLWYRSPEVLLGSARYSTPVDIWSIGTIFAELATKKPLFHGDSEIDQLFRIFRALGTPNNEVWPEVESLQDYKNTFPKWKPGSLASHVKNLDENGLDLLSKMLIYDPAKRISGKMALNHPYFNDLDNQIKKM
T4 sequence (P14635 whole entry partner): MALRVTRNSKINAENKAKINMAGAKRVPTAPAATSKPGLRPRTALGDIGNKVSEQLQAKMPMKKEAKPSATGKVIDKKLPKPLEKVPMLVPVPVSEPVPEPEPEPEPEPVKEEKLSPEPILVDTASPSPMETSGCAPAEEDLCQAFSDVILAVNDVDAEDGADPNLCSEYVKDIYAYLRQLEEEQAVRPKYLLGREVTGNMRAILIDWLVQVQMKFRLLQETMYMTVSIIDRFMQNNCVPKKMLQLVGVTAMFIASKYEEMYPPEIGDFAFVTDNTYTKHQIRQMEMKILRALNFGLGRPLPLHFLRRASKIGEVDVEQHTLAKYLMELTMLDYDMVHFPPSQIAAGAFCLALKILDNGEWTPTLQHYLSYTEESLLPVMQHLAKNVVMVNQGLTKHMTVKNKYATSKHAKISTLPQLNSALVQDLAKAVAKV
The experiment can be described thus: CDK1 screening assay (33P-ATP FlashPlate). In kind it is biochemical. To be noted: 10 μM ATP, 1 hr at 30° C. As for the experimental part:
as §9, §8
The CDK1 enzyme was isolated from insect cells expressing both the human CDK1 catalytic subunit (Accession number NM_001786) and its positive regulatory subunit cyclin B (New England Biolabs, Beverly, Mass.; Cat. #6020). The assay used 30 ng of the N-terminal biotinylated peptide biotin-[…]-amide (Cyclin dependent kinase 1) per well.
as §5
For a series of test concentrations, the IC50 was derived by graphing percent inhibition against the log of the concentrations tested for a given compound with results shown in Table 1.

T3 sequence (P04626 679-1255): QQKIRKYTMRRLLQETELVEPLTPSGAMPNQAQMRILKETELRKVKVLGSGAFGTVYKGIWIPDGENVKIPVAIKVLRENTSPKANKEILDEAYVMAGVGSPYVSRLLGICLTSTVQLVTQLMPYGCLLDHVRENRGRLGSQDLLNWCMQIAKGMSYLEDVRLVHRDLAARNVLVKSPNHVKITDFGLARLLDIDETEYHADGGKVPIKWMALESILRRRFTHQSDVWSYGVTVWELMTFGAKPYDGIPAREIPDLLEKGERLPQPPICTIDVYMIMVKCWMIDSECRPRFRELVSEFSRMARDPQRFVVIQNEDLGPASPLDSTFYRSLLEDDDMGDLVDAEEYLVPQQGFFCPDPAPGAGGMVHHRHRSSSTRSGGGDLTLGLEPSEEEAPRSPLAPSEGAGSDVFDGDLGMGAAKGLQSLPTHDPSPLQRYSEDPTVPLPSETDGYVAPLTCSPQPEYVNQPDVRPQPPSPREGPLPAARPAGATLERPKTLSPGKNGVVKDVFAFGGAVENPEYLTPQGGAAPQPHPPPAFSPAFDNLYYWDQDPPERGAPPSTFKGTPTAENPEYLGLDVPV

What is called IC50 is the concentration that gives 50% inhibition. A high value points to a need for much substance. With `FC(F)(F)c1c[nH]c(-c2n[nH]cc2/C=C/c2cccnc2)n1` [Cpd 2, 3-{2-[3-(4-trifluoromethyl-1H-imidazol-2-yl)-1H-pyrazol-4-yl]-vinyl}-pyridine], the IC50 in experiment [1] is 46.5 µM; in experiment [2] it was over 10 µM; in experiment [3], 29.4 µM; in experiment [4], 23.8 µM; in experiment [5], 0.117 µM; in experiment [6] it was over 100 µM. In addition, the IC50 in experiment [7] was 0.483 µM.

As for `N#Cc1c[nH]c(-c2n[nH]cc2/C=C/c2cccnc2)n1` [Cpd 3, 2-[4-(2-pyridin-3-yl-vinyl)-1H-pyrazol-3-yl]-1H-imidazole-4-carbonitrile], the IC50 is over 10 µM in experiment [1]; over 10 µM in experiment [2]; over 10 µM in experiment [3]; 70.7 µM in experiment [4]; over 10 µM in experiment [5]; over 100 µM in experiment [6]. This compound had an IC50 in experiment [7] of 0.704 µM.

With `FC(F)(F)c1cnc(-c2n[nH]cc2C=Cc2cncc3ccccc23)[nH]1` [Cpd 4, 4-{2-[3-(4-trifluoromethyl-1H-imidazol-2-yl)-1H-pyrazol-4-yl]-vinyl}-isoquinoline], the IC50 was determined as 5.59 µM in experiment [1]; 3.58 µM in experiment [2]; 3.06 µM in experiment [3]; 2.92 µM in experiment [4]; 0.297 µM in experiment [5]; 0.113 µM in experiment [7].

Consider `CCNCc1cncc(/C=C/c2c[nH]nc2-c2nc(C(F)(F)F)c[nH]2)c1` [Cpd 1, ethyl-(5-{2-[3-(4-trifluoromethyl-1H-imidazol-2-yl)-1H-pyrazol-4-yl]-vinyl}-pyridin-3-ylmethyl)-amine], for which the IC50 in experiment [1] is 7.44 µM; in experiment [2] it was 3.18 µM; in experiment [3] it was about 10 µM; in experiment [4], 1.75 µM; in experiment [5], over 10 µM; in experiment [6] it was over 100 µM. In addition, the midpoint of inhibition in experiment [7], the IC50, lay at 0.018 µM.

The values are drawn from US7635703B2, “Imidazole substituted pyrazole kinase inhibitors” (Janssen Pharmaceutica N.V., priority 2006, dated 2009).
